# Laboratory results taken from the kinase profiling compilation of Christmann-Franck et al. (2016).
# Experiments:
# Test in all cases: KINOMEscan competition binding
# Conditions in all cases: compound 1.0 µM
# CAMK2D (human) = CAMK2D (human) (UniProt Q13557)
# CDK18 (human) = CDK18 (human) (UniProt Q07002)
# CDKL3 (human) = CDKL3 (human) (UniProt Q8IVW4)
# CSNK1A1L (human) = CSNK1A1L (human) (UniProt Q8N752)
# [1] = tested on: EGFR (human), P00533 [T790M]
# EIF2AK2 (human) = EIF2AK2 (human) (UniProt P19525)
# [2] = tested on: FGFR3 (human), P22607 [G697C]
# FGR (human) = FGR (human) (UniProt P09769)
# [3] = tested on: FLT3 (human), P36888 [ITD]
# IKBKB (human) = IKBKB (human) (UniProt O14920)
# IKBKE (human) = IKBKE (human) (UniProt Q14164)
# [4] = target: JAK3 JH1 catalytic (human) (UniProt P52333)
# KDR (human) = KDR (human) (UniProt P35968)
# [5] = tested on: KIT (human), P10721 [L576P]
# LRRK2 (human) = LRRK2 (human) (UniProt Q5S007)
# MAP3K11 (human) = MAP3K11 (human) (UniProt Q16584)
# MAP4K4 (human) = MAP4K4 (human) (UniProt O95819)
# MATK (human) = MATK (human) (UniProt P42679)
# MATK (human), sequence (P42679 whole entry, looked up): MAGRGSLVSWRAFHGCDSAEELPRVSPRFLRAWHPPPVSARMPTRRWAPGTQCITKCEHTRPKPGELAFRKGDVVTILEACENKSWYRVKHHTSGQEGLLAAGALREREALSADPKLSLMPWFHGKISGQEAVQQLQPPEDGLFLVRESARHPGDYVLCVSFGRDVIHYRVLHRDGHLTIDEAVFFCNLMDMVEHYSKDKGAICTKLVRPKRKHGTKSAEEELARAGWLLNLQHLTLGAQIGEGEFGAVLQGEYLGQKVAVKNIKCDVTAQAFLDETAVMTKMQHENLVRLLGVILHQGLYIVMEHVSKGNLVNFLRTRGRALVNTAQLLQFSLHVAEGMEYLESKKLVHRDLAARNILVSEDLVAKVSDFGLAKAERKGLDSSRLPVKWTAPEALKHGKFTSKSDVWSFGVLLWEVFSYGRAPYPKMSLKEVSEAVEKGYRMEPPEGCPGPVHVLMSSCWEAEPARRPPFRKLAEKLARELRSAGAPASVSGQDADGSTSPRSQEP
# MELK (human) = MELK (human) (UniProt Q14680)
# MELK (human), sequence (Q14680 whole entry, looked up): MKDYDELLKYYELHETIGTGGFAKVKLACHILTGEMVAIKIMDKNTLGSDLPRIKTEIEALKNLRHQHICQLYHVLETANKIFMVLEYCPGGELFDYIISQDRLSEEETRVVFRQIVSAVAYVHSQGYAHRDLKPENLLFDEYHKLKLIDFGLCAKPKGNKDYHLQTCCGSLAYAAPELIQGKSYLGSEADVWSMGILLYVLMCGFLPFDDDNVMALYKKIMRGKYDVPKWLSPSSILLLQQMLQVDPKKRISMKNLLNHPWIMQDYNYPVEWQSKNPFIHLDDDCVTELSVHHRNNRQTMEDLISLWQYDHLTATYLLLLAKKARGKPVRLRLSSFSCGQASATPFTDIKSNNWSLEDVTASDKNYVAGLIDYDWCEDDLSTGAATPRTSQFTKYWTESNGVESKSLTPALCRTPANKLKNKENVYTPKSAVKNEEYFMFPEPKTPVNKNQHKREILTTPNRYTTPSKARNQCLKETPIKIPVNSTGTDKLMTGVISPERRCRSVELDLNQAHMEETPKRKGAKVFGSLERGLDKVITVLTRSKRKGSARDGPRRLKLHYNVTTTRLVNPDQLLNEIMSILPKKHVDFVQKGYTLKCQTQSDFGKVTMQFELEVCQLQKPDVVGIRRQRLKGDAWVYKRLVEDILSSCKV
# [6] = tested on: MET (human), P08581 [M1250T]
# MINK1 (human) = MINK1 (human) (UniProt Q8N4C8)
# MYO3A (human) = MYO3A (human) (UniProt Q8NEV4)
# NEK3 (human) = NEK3 (human) (UniProt P51956)
# NTRK2 (human) = NTRK2 (human) (UniProt Q16620)
# NTRK3 (human) = NTRK3 (human) (UniProt Q16288)
# NUAK2 (human) = NUAK2 (human) (UniProt Q9H093)
# NUAK2 (human), sequence (Q9H093 whole entry, looked up): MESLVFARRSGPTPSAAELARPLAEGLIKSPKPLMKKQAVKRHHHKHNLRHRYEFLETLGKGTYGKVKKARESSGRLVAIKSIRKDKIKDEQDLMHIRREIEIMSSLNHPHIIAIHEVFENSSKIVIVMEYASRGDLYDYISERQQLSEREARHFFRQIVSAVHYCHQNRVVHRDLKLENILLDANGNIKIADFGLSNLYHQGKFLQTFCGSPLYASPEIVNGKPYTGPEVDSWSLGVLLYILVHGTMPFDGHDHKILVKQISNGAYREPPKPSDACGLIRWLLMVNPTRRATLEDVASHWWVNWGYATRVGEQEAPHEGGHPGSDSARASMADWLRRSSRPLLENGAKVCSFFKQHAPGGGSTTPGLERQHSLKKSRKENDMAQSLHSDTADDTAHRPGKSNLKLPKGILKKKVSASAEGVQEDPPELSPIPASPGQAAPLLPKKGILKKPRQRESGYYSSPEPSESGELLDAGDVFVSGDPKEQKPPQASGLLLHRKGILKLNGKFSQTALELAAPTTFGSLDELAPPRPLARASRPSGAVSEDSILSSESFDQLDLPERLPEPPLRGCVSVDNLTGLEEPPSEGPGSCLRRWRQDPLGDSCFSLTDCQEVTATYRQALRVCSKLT
# PAK1 (human) = PAK1 (human) (UniProt Q13153)
# PAK3 (human) = PAK3 (human) (UniProt O75914)
# PDGFRB (human) = PDGFRB (human) (UniProt P09619)
# [7] = tested on: PIK3CA (human), P42336 [C420R]
# PIP4K2C (human) = PIP4K2C (human) (UniProt Q8TBX8)
# PIP4K2C (human), sequence (Q8TBX8 whole entry, looked up): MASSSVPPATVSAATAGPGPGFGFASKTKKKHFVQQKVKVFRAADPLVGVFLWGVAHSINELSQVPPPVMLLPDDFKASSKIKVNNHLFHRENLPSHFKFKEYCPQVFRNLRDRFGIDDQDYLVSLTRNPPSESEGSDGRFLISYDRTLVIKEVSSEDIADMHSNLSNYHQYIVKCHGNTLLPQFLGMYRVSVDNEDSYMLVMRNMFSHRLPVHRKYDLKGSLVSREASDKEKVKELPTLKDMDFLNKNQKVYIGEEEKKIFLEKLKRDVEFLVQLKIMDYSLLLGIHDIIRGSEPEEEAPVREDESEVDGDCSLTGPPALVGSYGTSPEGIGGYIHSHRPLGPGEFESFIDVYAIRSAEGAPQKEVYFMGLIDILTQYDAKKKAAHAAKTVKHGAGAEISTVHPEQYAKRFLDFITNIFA
# PRKCE (human) = PRKCE (human) (UniProt Q02156)
# PRKCH (human) = PRKCH (human) (UniProt P24723)
# PTK2 (human) = PTK2 (human) (UniProt Q05397)
# RAF1 (human) = RAF1 (human) (UniProt P04049)
# ROCK1 (human) = ROCK1 (human) (UniProt Q13464)
# RPS6KA5 KD1 (human) = RPS6KA5 KD1 (human) (UniProt O75582)
# RPS6KA5 KD1 (human), sequence (O75582 whole entry, looked up): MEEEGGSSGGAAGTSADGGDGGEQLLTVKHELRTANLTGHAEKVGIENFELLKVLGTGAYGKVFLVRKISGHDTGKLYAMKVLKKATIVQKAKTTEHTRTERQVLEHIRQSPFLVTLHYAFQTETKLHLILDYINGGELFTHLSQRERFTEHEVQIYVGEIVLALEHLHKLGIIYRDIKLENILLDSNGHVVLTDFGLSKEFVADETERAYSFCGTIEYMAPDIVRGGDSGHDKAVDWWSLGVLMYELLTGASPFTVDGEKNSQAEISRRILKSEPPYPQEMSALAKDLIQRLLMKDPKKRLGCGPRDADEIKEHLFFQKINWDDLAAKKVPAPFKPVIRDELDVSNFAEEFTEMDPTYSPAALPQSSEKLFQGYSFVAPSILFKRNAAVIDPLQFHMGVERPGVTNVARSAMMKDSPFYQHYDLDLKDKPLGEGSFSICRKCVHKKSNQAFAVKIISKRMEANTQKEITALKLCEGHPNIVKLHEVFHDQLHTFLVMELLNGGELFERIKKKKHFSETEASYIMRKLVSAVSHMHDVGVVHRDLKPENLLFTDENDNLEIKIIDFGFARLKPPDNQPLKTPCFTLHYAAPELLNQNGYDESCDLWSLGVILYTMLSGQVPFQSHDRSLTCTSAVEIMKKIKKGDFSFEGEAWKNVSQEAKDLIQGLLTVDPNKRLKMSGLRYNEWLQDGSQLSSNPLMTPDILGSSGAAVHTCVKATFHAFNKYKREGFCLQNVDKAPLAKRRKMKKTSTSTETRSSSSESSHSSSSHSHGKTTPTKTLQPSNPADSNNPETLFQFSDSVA
# SLK (human) = SLK (human) (UniProt Q9H2G2)
# SNRK (human) = SNRK (human) (UniProt Q9NRH2)
# TESK1 (human) = TESK1 (human) (UniProt Q15569)
# TGFBR1 (human) = TGFBR1 (human) (UniProt P36897)
# ULK2 (human) = ULK2 (human) (UniProt Q8IYT8)
# ULK2 (human), sequence (Q8IYT8 whole entry, looked up): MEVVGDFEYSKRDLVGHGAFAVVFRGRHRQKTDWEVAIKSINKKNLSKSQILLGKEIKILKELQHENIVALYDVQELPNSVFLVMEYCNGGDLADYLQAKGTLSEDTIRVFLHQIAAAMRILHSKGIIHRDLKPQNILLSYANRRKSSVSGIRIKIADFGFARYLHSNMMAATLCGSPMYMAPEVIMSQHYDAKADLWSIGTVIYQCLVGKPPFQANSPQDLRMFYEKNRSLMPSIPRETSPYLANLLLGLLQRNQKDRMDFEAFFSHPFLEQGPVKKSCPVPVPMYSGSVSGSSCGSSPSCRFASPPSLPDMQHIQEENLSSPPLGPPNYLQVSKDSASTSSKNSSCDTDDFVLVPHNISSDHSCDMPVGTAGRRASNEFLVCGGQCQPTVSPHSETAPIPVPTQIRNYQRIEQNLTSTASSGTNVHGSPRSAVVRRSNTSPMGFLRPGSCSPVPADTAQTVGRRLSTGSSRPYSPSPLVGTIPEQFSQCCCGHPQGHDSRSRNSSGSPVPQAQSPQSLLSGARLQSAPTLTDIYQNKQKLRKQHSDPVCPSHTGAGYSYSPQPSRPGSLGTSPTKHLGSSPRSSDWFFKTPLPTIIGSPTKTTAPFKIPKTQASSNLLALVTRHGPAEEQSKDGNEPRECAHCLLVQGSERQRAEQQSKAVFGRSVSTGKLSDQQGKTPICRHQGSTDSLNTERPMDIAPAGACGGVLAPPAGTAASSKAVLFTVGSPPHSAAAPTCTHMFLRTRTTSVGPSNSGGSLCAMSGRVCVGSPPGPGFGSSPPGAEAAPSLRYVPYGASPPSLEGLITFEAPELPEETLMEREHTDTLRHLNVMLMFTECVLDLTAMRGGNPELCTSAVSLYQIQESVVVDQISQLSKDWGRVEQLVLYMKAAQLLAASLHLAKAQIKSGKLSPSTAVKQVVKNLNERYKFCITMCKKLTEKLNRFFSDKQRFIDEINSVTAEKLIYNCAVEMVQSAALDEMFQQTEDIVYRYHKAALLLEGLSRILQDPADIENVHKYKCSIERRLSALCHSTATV
# YSK4 (human) = YSK4 (human) (UniProt Q56UN5)
# CDK18 (human), sequence (Q07002 whole entry, looked up): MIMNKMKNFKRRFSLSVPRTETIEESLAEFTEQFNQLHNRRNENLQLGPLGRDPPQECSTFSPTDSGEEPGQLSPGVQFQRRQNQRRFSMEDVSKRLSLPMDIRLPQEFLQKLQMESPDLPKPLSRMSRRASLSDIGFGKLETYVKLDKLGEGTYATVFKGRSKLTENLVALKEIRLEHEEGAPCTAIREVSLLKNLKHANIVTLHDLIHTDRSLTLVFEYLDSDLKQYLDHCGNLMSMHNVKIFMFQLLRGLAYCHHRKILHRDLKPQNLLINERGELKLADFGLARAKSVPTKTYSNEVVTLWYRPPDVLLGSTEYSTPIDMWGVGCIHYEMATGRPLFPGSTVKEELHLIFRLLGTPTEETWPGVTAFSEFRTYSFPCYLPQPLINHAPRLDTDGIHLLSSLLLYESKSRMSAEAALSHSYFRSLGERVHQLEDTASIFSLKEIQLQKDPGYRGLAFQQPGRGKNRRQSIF
# CAMK2D (human), sequence (Q13557 whole entry, looked up): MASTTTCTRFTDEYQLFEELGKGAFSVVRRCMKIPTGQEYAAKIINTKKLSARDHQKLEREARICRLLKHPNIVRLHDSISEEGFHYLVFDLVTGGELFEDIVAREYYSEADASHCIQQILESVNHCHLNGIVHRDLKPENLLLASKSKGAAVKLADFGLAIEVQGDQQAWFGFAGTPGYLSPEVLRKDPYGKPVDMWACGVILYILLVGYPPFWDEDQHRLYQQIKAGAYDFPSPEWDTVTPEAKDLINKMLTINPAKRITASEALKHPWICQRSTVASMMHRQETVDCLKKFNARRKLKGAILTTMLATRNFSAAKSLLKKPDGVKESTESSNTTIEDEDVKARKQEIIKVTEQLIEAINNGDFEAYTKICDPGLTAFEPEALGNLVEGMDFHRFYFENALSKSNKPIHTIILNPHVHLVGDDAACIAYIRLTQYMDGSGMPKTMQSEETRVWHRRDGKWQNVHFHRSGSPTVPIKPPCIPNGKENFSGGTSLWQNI
compound,measurement,setting,value
COCCNCCCn1c(C(=O)CF)c(-c2ccc(C)cc2)c2c(N)ncnc21,"kinase still bound, per cent of control",CAMK2D (human),82%
same,"kinase still bound, per cent of control",CDK18 (human),100%
same,"kinase still bound, per cent of control",CDKL3 (human),88%
same,"kinase still bound, per cent of control",CSNK1A1L (human),100%
same,"kinase still bound, per cent of control",[1],100%
same,"kinase still bound, per cent of control",EIF2AK2 (human),90%
same,"kinase still bound, per cent of control",[2],91%
same,"kinase still bound, per cent of control",FGR (human),93%
same,"kinase still bound, per cent of control",[3],91%
same,"kinase still bound, per cent of control",IKBKB (human),95%
same,"kinase still bound, per cent of control",IKBKE (human),100%
same,"kinase still bound, per cent of control",[4],100%
same,"kinase still bound, per cent of control",KDR (human),85%
same,"kinase still bound, per cent of control",[5],71%
same,"kinase still bound, per cent of control",LRRK2 (human),100%
same,"kinase still bound, per cent of control",MAP3K11 (human),100%
same,"kinase still bound, per cent of control",MAP4K4 (human),88%
same,"kinase still bound, per cent of control",MATK (human),100%
same,"kinase still bound, per cent of control",MELK (human),95%
same,"kinase still bound, per cent of control",[6],95%
same,"kinase still bound, per cent of control",MINK1 (human),100%
same,"kinase still bound, per cent of control",MYO3A (human),100%
same,"kinase still bound, per cent of control",NEK3 (human),70%
same,"kinase still bound, per cent of control",NTRK2 (human),74%
same,"kinase still bound, per cent of control",NTRK3 (human),91%
same,"kinase still bound, per cent of control",NUAK2 (human),96%
same,"kinase still bound, per cent of control",PAK1 (human),89%
same,"kinase still bound, per cent of control",PAK3 (human),100%
same,"kinase still bound, per cent of control",PDGFRB (human),68%
same,"kinase still bound, per cent of control",[7],100%
same,"kinase still bound, per cent of control",PIP4K2C (human),100%
same,"kinase still bound, per cent of control",PRKCE (human),100%
same,"kinase still bound, per cent of control",PRKCH (human),100%
same,"kinase still bound, per cent of control",PTK2 (human),100%
same,"kinase still bound, per cent of control",RAF1 (human),99%
same,"kinase still bound, per cent of control",ROCK1 (human),98%
same,"kinase still bound, per cent of control",RPS6KA5 KD1 (human),79%
same,"kinase still bound, per cent of control",SLK (human),100%
same,"kinase still bound, per cent of control",SNRK (human),99%
same,"kinase still bound, per cent of control",TESK1 (human),100%
same,"kinase still bound, per cent of control",TGFBR1 (human),89%
same,"kinase still bound, per cent of control",ULK2 (human),90%
same,"kinase still bound, per cent of control",YSK4 (human),100%
